Laboratory results from US7678787B2, “Pyrrolobenzodiazepine pyridine carboxamides and derivatives as follicle-stimulating hormone receptor antagonists” (Wyeth, priority 2005, dated 2010).
Where a name gives a salt, the structure may show the parent alone.

Molecular target: T1, human FSH receptor (Homo sapiens, UniProt P23945)
T1 construct: host or cells: CHO-K1 (CHO FSH-R 6CRE-Luc, 1D7 cells)
T1 sequence (P23945 18-695): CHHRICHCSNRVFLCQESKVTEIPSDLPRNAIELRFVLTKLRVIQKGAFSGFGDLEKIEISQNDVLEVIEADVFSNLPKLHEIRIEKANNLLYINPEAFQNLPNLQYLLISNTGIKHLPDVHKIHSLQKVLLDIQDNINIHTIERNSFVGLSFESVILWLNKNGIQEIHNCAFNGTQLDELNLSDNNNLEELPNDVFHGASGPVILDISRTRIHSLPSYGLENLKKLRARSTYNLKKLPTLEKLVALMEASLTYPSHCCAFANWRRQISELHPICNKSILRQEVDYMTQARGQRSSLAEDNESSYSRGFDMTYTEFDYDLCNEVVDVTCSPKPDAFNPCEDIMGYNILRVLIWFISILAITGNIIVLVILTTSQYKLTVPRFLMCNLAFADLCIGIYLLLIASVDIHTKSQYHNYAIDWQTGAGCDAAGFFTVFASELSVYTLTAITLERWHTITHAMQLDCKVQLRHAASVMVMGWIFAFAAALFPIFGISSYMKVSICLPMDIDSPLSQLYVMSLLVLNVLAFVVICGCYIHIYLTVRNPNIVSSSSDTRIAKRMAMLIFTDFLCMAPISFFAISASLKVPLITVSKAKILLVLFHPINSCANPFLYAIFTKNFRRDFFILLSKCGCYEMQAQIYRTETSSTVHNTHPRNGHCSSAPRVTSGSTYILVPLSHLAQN
Test: FSH receptor-dependent CRE-luciferase reporter gene assay (CHO FSH-R 6CRE-Luc cells)
Format: cell-based
Details: dose-response format in presence of EC50 of purified human FSH; * n=3, ** n=2 averages
Excerpt: FOLLICLE-STIMULATING HORMONE RECEPTOR-DEPENDENT CRE-LUCIFERASE REPORTER GENE ASSAY FOR THE IDENTIFICATION OF FOLLICLE-STIMULATING HORMONE (FSH) ANTAGONISTS
A Chinese hamster ovarian cell line that stably produces the human FSH receptor and a luciferase reporter gene regulated by cAMP response elements was used to identify and determine the relative potencies of human FSH receptor antagonists. See for example, Kelton, C. A., et al. Mol. Cell. Endocrinol. 89:141-151 (1992), Tilly, J. L., et al. Endocrinology 131:799-806(1992), and George, S. E., et al. J. Biomol. Screening 2:235-240 (1997).
Compound Vehicle: Stock compounds were solubilized in an appropriate vehicle, e.g., phosphate buffered saline (PBS) or dimethyl sulfoxide (DMSO), at 30 mM. The compounds subsequently were diluted in DMSO to working dilutions of 1 and 20 or 30 mM for 2-dose testing format and 1 μM-10 mM for dose-response format. The DMSO dilutions were diluted 500-fold in sterile growth medium [D-MEM/F-12 (GIBCO/BRL; Grand Island, N.Y.) containing 15 mM HEPES, 2 mM l-glutamine, pyridoxine hydrochloride, phenol red and 5% FETALCLONE® II (HyClone Laboratories, Inc; Logan, Utah), 0.2% DMSO, 100 units penicillin G/ml, and 100 μg streptomycin sulfate/ml (GIBCO/BRL)]. The concentration of the vehicle in each of the compound dilutions was the same.
Positive Controls: Purified human FSH (>98%) was purchased from Cortex Biochem, Inc. (San Leandro, Calif.) and 3-[(2S*,5R*)-5-{[2-(1H-Indol-3-yl)-ethylcarbamoyl]-methyl}-4-oxo-2-(5-phenylethynyl-thiophen-2-yl)-thiazolidin-3-yl]-benzamide (an FSH-R thiazolidinone antagonist) was prepared by processes described by R. A. Scheuerman et al. in U.S. Pat. No. 6,426,357 (Affymax).
The CHO FSH-R 6CRE-Luc cells (1D7 cells) were obtained from Affymax (Palo Alto, Calif.). These Chinese hamster ovary cells (CHO-K1) were engineered genetically to stably express the recombinant human FSH receptor gene and a luciferase reporter gene under the regulation of 6 copies of a cAMP response element. The cells were plated one day prior to treatment into 96-well white opaque plates at a density of 50,000 cells/100 μl/well in growth medium. On the day of treatment, the growth medium was removed from the wells by aspiration and 50 μl of fresh growth medium was added to each well. The cells were incubated at 37° C. in a humidified incubator with 5% CO2/95% air.
The treated cells were incubated for 4 hours at 37° C. in a humidified incubator with 5% CO2/95% air. At the end of the incubation period, luciferase activity was measured by chemiluminescence using a commercially available kit (LucScreen, Tropix, Inc., Bedford, Mass.) according to the manufacturer's specifications, except that Buffer 1 and Buffer 2 were mixed together in equal proportion prior to the addition of 100 μl of the combined reagents to each well. Chemiluminescence was detected using a luminometer (EG & G Berthold Microlumat LB 96 P, Wallac, Gaithersburg, Md.) with chemiluminescence measured for 1 sec/well. Background luminescence was measured for each well prior to the addition of the LucScreen reagent.
In the 96-well 2-dose format, each compound was tested in duplicate at each dose. […] One plate was used to test a maximum of 22 compounds.
The EC50 of purified human FSH alone was tested in triplicate with each test compound. The doses chosen to test each compound were extrapolated from the initial 2-dose screening process. Along with the test compounds, purified human FSH also was tested in a dose response (0.03, 0.1, 0.3, 1, 3, 10, and 30 ng/ml) for a positive control and quality control. One plate was used for 3 test compounds and the FSH positive control.
Luciferase activity is expressed as relative light units/sec/well. Luciferase activity in antagonist was compared to the appropriate negative and positive controls. For 2-dose testing, results are reported as luciferase activity and are expressed as percent inhibition of the response obtained from the EC50 of FSH.

| SMILES | IC50 |
| --- | --- |
| COc1ccccc1-c1ccc(C(=O)N2Cc3ccc(C(=O)NCC(c4cccnc4)N4CCCC4)n3Cc3ccccc32)cc1 (stereo not shown) [Example 9, 10-[(2′-METHOXY-1,1′-BIPHENYL-4-YL)CARBONYL]-N-(2-PYRIDIN-3-YL-2-PYRROLIDIN-1-YLETHYL)-10,11-DIHYDRO-5H-PYRROLO[2,1-C][1,4]BENZODIAZEPINE-3-CARBOXAMIDE] | 17 µM |
| Cc1cccc(C)c1-c1ccc(C(=O)N2Cc3ccc(C(=O)NCc4cccnc4)n3Cc3ccccc32)cc1 [Example 12] | 16.4 µM |
| NS(=O)(=O)c1ccccc1-c1ccc(C(=O)N2Cc3ccc(C(=O)NCc4cccnc4)n3Cc3ccccc32)cc1 [Example 16] | 0.994 µM |
| O=C(NCc1cccnc1)c1ccc2n1Cc1ccccc1N(C(=O)c1ccc(-c3ccccc3Cc3nnn[nH]3)cc1)C2 [Example 19] | 2.4 µM |
| Cc1ccc(-c2ccc(C(=O)N3Cc4ccc(C(=O)NCc5cccnc5)n4Cc4ccccc43)cc2C)cc1 [Example 22] | 15 µM |
| CC(=O)c1ccc(-c2ccc(C(=O)N3Cc4ccc(C(=O)NCc5cccnc5)n4Cc4ccccc43)cc2C)cc1 [Example 26] | > 30 µM |
| Cc1ccccc1-c1cccc(C(=O)N2Cc3ccc(C(=O)NCc4cccnc4)n3Cc3ccccc32)c1 [Example 27] | 22.7 µM |
| O=C(O)Cc1ccccc1-c1ccc(C(=O)N2Cc3ccc(C(=O)NCc4cccnc4)n3Cc3ccccc32)cc1 [Example 35, (4′-{[3-{[(PYRIDIN-3-YLMETHYL)AMINO]CARBONYL}-5H-PYRROLO[2,1-C][1,4]BENZODIAZEPIN-10(11H)-YL]CARBONYL}-1,1′-BIPHENYL-2-YL)ACETIC ACID] | 31 µM |
| O=C(NCc1cccnc1)c1ccc2n1Cc1ccccc1N(C(=O)c1ccc(-c3ccccc3CN3CCCC3)cc1)C2 [Example 41] | 25.1 µM |
| CCN(CC)C(=O)Cc1ccccc1-c1ccc(C(=O)N2Cc3ccc(C(=O)NCc4cccnc4)n3Cc3ccccc32)cc1 [Example 67] | 29.1 µM |
| Cc1ccc(C(=O)N2Cc3ccc(C(=O)NCc4cccnc4)n3Cc3ccccc32)cc1 [Example 77] | 18.8 µM |
| O=C(NCc1cccnc1)c1ccc2n1Cc1ccccc1N(C(=O)c1ccc(C(F)(F)F)cc1)C2 [Example 79] | 17.8 µM |
| Cc1cccc(C(=O)N2Cc3ccc(C(=O)NCc4cccnc4)n3Cc3ccccc32)c1 [Example 83] | 16.6 µM |
| O=C(NCc1cccnc1)c1ccc2n1Cc1ccccc1N(C(=O)c1cccc(C(F)(F)F)c1)C2 [Example 92] | 9.9 µM |
| O=C(NCc1cccnc1)c1ccc2n1Cc1ccccc1N(C(=O)c1ccc(F)c(F)c1)C2 [Example 100] | 31.5 µM |
| O=C(NCc1cccnc1)c1ccc2n1Cc1ccccc1N(C(=O)c1ccc(Oc3ccccc3)cc1)C2 [Example 101] | 12 µM |
| NS(=O)(=O)c1cc(C(=O)N2Cc3ccc(C(=O)NCc4cccnc4)n3Cc3ccccc32)ccc1N1CCOCC1 [Example 114, 10-[3-(AMINOSULFONYL)-4-MORPHOLIN-4-YLBENZOYL]-N-(PYRIDIN-3-YLMETHYL)-10,11-DIHYDRO-5H-PYRROLO[2,1-C][1,4]BENZODIAZEPINE-3-CARBOXAMIDE HEMIHYDRATE] | > 30 µM |
| O=C(NCc1cccnc1)c1ccc2n1Cc1ccccc1N(C(=O)c1ccccn1)C2 [Example 116] | > 30 µM |
| O=C(NCc1cccnc1)c1ccc2n1Cc1ccccc1N(C(=O)c1cc(Cl)sc1Cl)C2 [Example 118] | 27.7 µM |
| COc1ccccc1CNc1ccc(C(=O)N2Cc3ccc(C(=O)NCc4cccnc4)n3Cc3ccccc32)cn1 [Example 120] | 49.6 µM |
| O=C(NCc1cccnc1)c1ccc2n1Cc1ccccc1N(C(=O)c1ccc(NCCc3ccccc3)nc1)C2 [Example 126] | 18.7 µM |
| O=C(NCc1cccnc1)c1ccc2n1Cc1ccccc1N(C(=O)c1ccc(NCc3cccnc3)nc1)C2 [Example 131] | 15.8 µM |
| CCCCNc1ccc(C(=O)N2Cc3ccc(C(=O)NCc4cccnc4)n3Cc3ccccc32)cn1 [Example 133] | 14.5 µM |
| O=C(NCc1cccnc1)c1ccc2n1Cc1ccccc1N(C(=O)c1ccc3ccccc3c1)C2 [Example 146] | 11.3 µM |

Tested on: not given
Test: not given
Details: not given

| SMILES | melting point |
| --- | --- |
| Cc1ncc(CNC(=O)c2ccc3n2Cc2ccccc2N(C(=O)CSc2ccc(Br)cc2)C3)c(CO)c1O | 199 to 200 °C |
| CN(C)C(=O)c1ccccc1-c1ccc(C(=O)N2Cc3ccc(C(=O)NCc4cccnc4)n3Cc3ccccc32)cc1 | 206 to 207 °C |
| COc1cc(C(=O)N2Cc3ccc(C(=O)NCc4c(CO)cnc(C)c4O)n3Cc3ccccc32)ccc1-c1ccccc1C (as salt: hydrochloride) (hydrate or solvate) | 179 °C |
| O=C(NCc1cccnc1)c1ccc2n1Cc1ccccc1N(C(=O)CSc1ccc(Br)cc1)C2 (as salt: hydrochloride) (hydrate or solvate) [Example 141] | 136 to 137 °C |
| CSc1ccccc1-c1ccc(C(=O)N2Cc3ccc(C(=O)NCc4cccnc4)n3Cc3ccccc32)cc1 (hydrate or solvate) [Example 14, 10-{[2′-(METHYLTHIO)-1,1′-BIPHENYL-4-YL]CARBONYL}-N-(PYRIDIN-3-YLMETHYL)-10,11-DIHYDRO-5H-PYRROLO[2,1-C][1,4]BENZODIAZEPINE-3-CARBOXAMIDE 0.67 HYDRATE] | 172 to 175 °C |
| NS(=O)(=O)c1cc(C(=O)N2Cc3ccc(C(=O)NCc4cccnc4)n3Cc3ccccc32)ccc1N1CCOCC1 (hydrate or solvate) [Example 114, 10-[3-(AMINOSULFONYL)-4-MORPHOLIN-4-YLBENZOYL]-N-(PYRIDIN-3-YLMETHYL)-10,11-DIHYDRO-5H-PYRROLO[2,1-C][1,4]BENZODIAZEPINE-3-CARBOXAMIDE HEMIHYDRATE] | 159 to 161 °C |
| Cc1cccc(C)c1-c1ccc(C(=O)N2Cc3ccc(C(=O)NCc4cccnc4)n3Cc3ccccc32)cc1 [Example 12] | 216 to 218 °C (dec.) |
| NS(=O)(=O)c1ccccc1-c1ccc(C(=O)N2Cc3ccc(C(=O)NCc4cccnc4)n3Cc3ccccc32)cc1 [Example 16] | 153 to 156 °C |
| O=C(NCc1cccnc1)c1ccc2n1Cc1ccccc1N(C(=O)c1ccc(-c3ccccc3Cc3nnn[nH]3)cc1)C2 [Example 19] | 164 to 167 °C |
| O=C(NCc1cccnc1)c1ccc2n1Cc1ccccc1N(C(=O)c1ccc(-c3ccccc3CN3CCCC3)cc1)C2 [Example 41] | 210 to 212 °C |
| O=C(NCc1cccnc1)c1ccc2n1Cc1ccccc1N(C(=O)c1ccccc1)C2 [Example 76] | 197 °C |
| O=C(NCc1cccnc1)c1ccc2n1Cc1ccccc1N(C(=O)c1ccc3c(c1)OCO3)C2 [Example 96] | 169 to 171 °C |
| O=C(NCc1cccnc1)c1ccc2n1Cc1ccccc1N(C(=O)c1ccc3c(c1)Cc1ccccc1-3)C2 [Example 147] | 116 to 119 °C |
